In article PMC10541198, “Specific quinone reductase 2 inhibitors reduce metabolic burden and reverse Alzheimer’s disease phenotype in mice” (The Journal of Clinical Investigation, 2023):
Values joined by “and” are separate entries in the source; they are usually repeats but may differ in a detail not shown here. Equal entries are not always repeated.

Test system: 5xFAD mice
Assay: Morris water maze in 5xFAD mice
Format: in vivo, mouse
Conditions: for MWM escape latency (individual mice): 5xFAD 1 month
Protocol: We next aimed to test the effect of QR2 inhibition in AD model mice using YB-537, taking advantage of its extremely high specificity, solubility, and lack of toxicity. First, we determined YB-537 pharmacokinetics (PK) and oral bioavailability and assessed any acute observable toxicity in mice. […] We therefore opted to chronically deliver YB-537 to AD-model mice via their drinking water, so they may freely ingest the inhibitor at 50 mg/kg, with minimal intervention or trauma, for 1 month. We chose 9-month-old 5xFAD ([27]) male and female mice in double-blind experiments, so that well-progressed symptoms and pathologies would be present, to mimic clinically relevant cases in human patients ([35]), as has been previously described in this mouse model. Other than an improvement in nest quality ([36]) over time seen in animals receiving YB-537 (starting at age 8 months and ending at age 9 months), no changes to general physical parameters or wellbeing were observed over the 1 month of YB-537 ingestion (Supplemental Figure 6, A–J). Animals received the treatment for a week, and, on week 2, behavioral experiments commenced, including Morris water maze (MWM) and novel object recognition (NOR). These were carried out in parallel, with half of the animals (including both sexes and treatments) undergoing 1 of the paradigms in week 2, and the other in week 3. […] Since learning in this paradigm was slow, and performance was poor even following 6 days of training (using 4 learning trials a day), a test day was not carried out and instead only the learning rate was measured. […] Finally, during week 4, all the mice underwent DFC.
MWM was carried out as previously described ([57]). Mice were trained 4 times a day, using 60 second trials every 30 minutes during which they were placed into the pool, each time from a different quadrant, and allowed to swim to find the escape platform. All trials were filmed with a video tracking system using EthoVision 14 (Noldus Information Technology), and escape latency, or time to find the submerged escape platform, was determined by video analysis. […]
Morri s wat er maze ( MWM) was carried out as previously described(58). At the sam e time each consecutive day, mice were placed in the dimly lit room containing the maze for 10 min, within cages containing dry bedding (not the home cages). The maze was obscured by a non-light- permeable curtain. The maze consisted of a 1.2 m pool, with RT (21- 23 °C) water colored light grey, to hide the submerged (under 1- 2 cm) transparent, 10 cm in diam et er plastic escape platform, which was placed at t he south- western quadrant of the pool. Mi ce wer e trained 4 times a day, using 60 s trials ever y 30 min during which t he y were pl a c ed into t he pool, each time fr om a di fferent quadrant, and allowed to swim and find t he escape platform. Upon reaching t he platform, m ice were removed fr om t he pool. If the mice f ai led to find the […] within 60 s, […]
they were carefully placed on the escape platform and held there for 15 s prior to being taken out of the pool. All trials were filmed with a video tracking system using EthoVision 14 (Noldus Information Technology), andescape latency (time to find the submer ged escape platform) was determined by manual video analysis (due to automated det ect ion settings unable to discern all mice coat c ol or s – bl a c k, white a nd brown - against the opaque water).
Mice were individually placed within a cage and taken to a dimly lit room containing an open field arena 50 x 50 cm in size. They were gi ve n 10 min prior to be i ng placed within the arena, where f or a period of 5 min they were allowed to explore. Two weeks later, this was repeated. The mice were filmed with an Ikegami ICD-49E camera with EthoVision 14 (Noldus Information Technology). Th e fl oor was ei ther whit e or black,dependingon mous e coat c ol or, to allow automatic analysisof movement par am et ers, apar t from rearing which was manually counted. […]

**Q.** For Cc1ccc(-c2cn3cccc(C)c3n2)cc1S(=O)(=O)N1CCNCC1 [YB-537], which “MWM escape latency (individual mice)” value (both sexes, Day 1) is on record?
**A.** The value was 60.0 (8×) and 29.4 and 26.8 and 55.1 and 57.2 and 53.5 (2×) and 41.6 and 50.9.

**Q.** What about the “MWM escape latency (individual mice)” value (both sexes, Day 2) of the same compound?
**A.** The value was 60.0 (6×) and 28.0 and 23.5 and 59.7 and 50.7 and 45.3 and 33.5 and 15.1 and 54.5 and 36.1 and 58.0.

**Q.** What about the “MWM escape latency (individual mice)” value (both sexes, Day 3) of the same compound?
**A.** The value was 48.7 and 59.3 and 42.1 and 33.7 and 34.3 and 45.6 and 37.0 and 60.0 (2×) and 49.6 and 35.1 and 26.9 and 13.8 and 47.4 and 47.7 and 54.0.

**Q.** What about the “MWM escape latency (individual mice)” value (both sexes, Day 4, in s (unit assumed)) of the same compound?
**A.** Its value is 44.6 and 57.9 and 24.5 and 37.5 and 31.1 and 37.6 and 51.0 and 60.0 and 52.1 and 34.3 and 5.9 and 14.1 and 13.3 and 23.0 and 48.5 and 53.9.

**Q.** What about the “MWM escape latency (individual mice)” value (both sexes, Day 5, in s (unit assumed)) of the same compound?
**A.** Its value is 19.0 and 40.4 and 25.1 and 16.2 and 18.6 and 45.8 and 60.0 and 50.4 and 37.0 and 38.2 and 5.7 and 19.6 and 7.3 and 21.1 and 16.8 and 48.8.

**Q.** And the “MWM escape latency (individual mice)” value (both sexes, Day 6)?
**A.** The value was 39.3 and 17.9 and 20.3 and 12.9 and 14.8 and 34.0 and 50.7 and 60.0 and 14.1 and 16.8 and 5.6 and 7.2 (2×) and 16.3 and 19.0 and 27.9.

**Q.** What about the “MWM escape latency (individual mice)” value (males, Day 5, in s (unit assumed)) of the same compound?
**A.** Its value is 16.2 and 18.6 and 45.8 and 60.0.

**Q.** And the “spatial learning in MWM (escape latency over 6 days)” value (5xFAD, 50 mg/kg in drinking water, 1 month, both sexes)?
**A.** Its value is “trend toward faster spatial learning”.
